What was measured:
Format in all cases: biochemical
FVIIa = target: T1, FVIIa (Homo sapiens, UniProt P08709); experiment: Non-TMPRSS2 protease panel: FVIIa; conditions: 10-dose, 3-fold from 10 μM
T1 construct: Elastase, FVIIa, Fxa, FXIa
T1 sequence (P08709 213-466 limits assumed): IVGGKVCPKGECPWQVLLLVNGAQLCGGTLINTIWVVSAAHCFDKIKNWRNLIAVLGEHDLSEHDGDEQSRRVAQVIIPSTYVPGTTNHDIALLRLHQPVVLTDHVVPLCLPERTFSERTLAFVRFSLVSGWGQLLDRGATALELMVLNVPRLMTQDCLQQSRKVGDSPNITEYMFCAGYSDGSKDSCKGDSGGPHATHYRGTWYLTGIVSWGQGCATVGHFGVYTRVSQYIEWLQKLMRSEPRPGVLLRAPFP
T1 sequence (P08709 61-212 partner limits assumed): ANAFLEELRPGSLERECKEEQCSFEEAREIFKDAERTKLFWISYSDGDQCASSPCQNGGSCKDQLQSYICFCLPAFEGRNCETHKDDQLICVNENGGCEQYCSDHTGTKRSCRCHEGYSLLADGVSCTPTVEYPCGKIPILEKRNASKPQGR
Protocol: (§1) Biochemical activity of compound 1 (racemic mixture, batch 1), compound 3 (racemic), compound 11, and compound 2 (enantiomer 1, batch 1) in proteases indicated in Table 21, Table 22, Table 23, and Table 24, respectively, were measured by testing the compounds in a 10-dose IC50 with a 3-fold series dilution starting at 10 μM against the proteases. The protease activities were monitored as a time-course measurement of the increase in fluorescence signal from fluorescently-labeled peptide substrate, and initial linear portion of slope (signal/min) was analyzed. The curve fits were performed when the activities at the highest concentration of compounds were less than 65%.

Thrombin a = Thrombin a (Homo sapiens, UniProt P00734); experiment: Non-TMPRSS2 protease panel: Thrombin a; conditions: 10-dose, 3-fold from 10 μM
Protocol: as §1

Cathepsin L = Cathepsin L (Homo sapiens, UniProt P07711); experiment: Non-TMPRSS2 protease panel: Cathepsin L; conditions: 10-dose, 3-fold from 10 μM
Protocol: as §1

MMP 10 = MMP 10 (Homo sapiens, UniProt P09238); experiment: Non-TMPRSS2 protease panel: MMP 10; conditions: 3-fold from 10 μM
Protocol: as §1

Kallikrein 12 = target: T2, Kallikrein 12 (Homo sapiens, UniProt Q9UKR0); experiment: Non-TMPRSS2 protease panel: Kallikrein 12; conditions: 10-dose, 3-fold from 10 μM
T2 sequence (Q9UKR0 18-248): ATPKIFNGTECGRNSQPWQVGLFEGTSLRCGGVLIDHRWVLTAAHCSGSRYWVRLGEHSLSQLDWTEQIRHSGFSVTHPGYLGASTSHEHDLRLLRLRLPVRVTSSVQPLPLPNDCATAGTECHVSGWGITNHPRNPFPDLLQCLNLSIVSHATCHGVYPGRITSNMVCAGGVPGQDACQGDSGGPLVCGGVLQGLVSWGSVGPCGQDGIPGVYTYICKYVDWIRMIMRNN
Protocol: as §1

Mpro = target: T3, Mpro (Severe acute respiratory syndrome coronavirus 2, UniProt P0DTD1); experiment: Non-TMPRSS2 protease panel: Mpro; conditions: 10-dose, 3-fold from 10 μM
T3 construct: MMP 14, Mpro, Plasma Kallikrein
Protocol: as §1

Matriptase 2 = target: T4, Matriptase 2 (Homo sapiens, UniProt Q8IU80); experiment: Non-TMPRSS2 protease panel: Matriptase 2; conditions: 10-dose, 3-fold from 10 μM
T4 sequence (Q8IU80 1-811): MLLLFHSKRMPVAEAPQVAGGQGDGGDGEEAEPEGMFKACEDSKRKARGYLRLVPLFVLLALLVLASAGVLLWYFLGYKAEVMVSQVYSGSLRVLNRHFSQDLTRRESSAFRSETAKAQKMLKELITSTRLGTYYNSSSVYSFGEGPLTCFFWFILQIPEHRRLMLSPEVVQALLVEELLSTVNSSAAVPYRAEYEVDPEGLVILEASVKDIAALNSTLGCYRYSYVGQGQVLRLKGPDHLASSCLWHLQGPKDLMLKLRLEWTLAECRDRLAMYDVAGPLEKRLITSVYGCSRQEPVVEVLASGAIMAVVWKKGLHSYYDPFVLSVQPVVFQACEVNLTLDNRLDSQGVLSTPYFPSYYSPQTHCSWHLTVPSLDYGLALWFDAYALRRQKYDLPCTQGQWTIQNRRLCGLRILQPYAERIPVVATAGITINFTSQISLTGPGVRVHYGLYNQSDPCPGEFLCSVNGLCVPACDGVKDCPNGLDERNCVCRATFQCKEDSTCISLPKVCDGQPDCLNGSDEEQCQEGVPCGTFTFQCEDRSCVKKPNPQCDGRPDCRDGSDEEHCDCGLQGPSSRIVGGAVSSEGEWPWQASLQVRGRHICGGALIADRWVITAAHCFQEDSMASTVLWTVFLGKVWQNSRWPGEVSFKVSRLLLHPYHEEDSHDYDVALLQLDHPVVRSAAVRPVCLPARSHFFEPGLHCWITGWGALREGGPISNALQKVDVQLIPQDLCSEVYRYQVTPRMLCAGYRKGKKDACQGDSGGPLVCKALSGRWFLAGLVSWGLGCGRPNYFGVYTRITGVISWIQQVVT
Protocol: as §1

Kallikrein 7 = Kallikrein 7 (Homo sapiens, UniProt P49862); experiment: Non-TMPRSS2 protease panel: Kallikrein 7; conditions: 10-dose, 3-fold from 10 μM
Protocol: as §1

MMP 2 = target: T5, MMP 2 (Homo sapiens, UniProt P08253); experiment: Non-TMPRSS2 protease panel: MMP 2; conditions: 10-dose, 3-fold from 10 μM
T5 sequence (P08253 110-660): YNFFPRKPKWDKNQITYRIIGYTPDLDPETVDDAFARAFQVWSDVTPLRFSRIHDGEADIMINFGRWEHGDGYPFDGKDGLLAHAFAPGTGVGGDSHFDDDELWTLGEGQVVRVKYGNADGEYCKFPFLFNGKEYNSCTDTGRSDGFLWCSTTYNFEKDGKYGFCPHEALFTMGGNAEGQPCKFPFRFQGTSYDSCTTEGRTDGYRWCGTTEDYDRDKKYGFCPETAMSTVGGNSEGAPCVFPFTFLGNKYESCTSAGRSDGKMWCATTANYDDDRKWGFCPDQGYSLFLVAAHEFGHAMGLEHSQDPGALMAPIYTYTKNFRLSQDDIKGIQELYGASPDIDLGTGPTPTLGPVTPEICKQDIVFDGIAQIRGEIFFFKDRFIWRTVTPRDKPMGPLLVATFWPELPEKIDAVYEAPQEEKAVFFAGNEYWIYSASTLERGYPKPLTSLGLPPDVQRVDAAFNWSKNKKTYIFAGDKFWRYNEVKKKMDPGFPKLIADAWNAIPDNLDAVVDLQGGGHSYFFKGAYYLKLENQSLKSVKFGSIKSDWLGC
Protocol: as §1

Kallikrein 14 = target: T6, Kallikrein 14 (Homo sapiens, UniProt Q9P0G3); experiment: Non-TMPRSS2 protease panel: Kallikrein 14; conditions: 10-dose, 3-fold from 10 μM
T6 sequence (Q9P0G3 25-251): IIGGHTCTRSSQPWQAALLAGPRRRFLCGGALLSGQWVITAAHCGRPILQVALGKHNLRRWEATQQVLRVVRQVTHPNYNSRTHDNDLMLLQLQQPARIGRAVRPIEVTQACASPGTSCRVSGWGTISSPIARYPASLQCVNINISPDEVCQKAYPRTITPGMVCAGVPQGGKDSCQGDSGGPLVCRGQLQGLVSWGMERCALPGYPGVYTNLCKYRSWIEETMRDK
Protocol: as §1

Chain of Kallikrein 7 (P49862 30-253): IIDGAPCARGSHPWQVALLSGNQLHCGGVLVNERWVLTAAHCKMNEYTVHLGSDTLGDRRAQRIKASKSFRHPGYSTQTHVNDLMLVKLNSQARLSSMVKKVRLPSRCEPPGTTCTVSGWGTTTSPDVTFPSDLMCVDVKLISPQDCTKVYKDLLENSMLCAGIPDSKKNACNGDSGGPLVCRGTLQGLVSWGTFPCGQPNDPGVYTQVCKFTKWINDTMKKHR
Chain of MMP 10 (P09238 99-476): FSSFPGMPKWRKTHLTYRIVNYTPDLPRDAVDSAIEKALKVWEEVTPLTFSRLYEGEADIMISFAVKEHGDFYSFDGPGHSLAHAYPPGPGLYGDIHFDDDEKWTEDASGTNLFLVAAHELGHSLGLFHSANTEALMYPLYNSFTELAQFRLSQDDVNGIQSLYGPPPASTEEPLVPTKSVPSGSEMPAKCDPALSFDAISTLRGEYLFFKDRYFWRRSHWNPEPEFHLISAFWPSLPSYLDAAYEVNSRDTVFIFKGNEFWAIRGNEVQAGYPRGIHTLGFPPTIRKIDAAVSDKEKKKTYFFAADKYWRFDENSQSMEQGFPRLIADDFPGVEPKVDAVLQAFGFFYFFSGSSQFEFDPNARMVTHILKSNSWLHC
Chain of Cathepsin L (P07711 114-333): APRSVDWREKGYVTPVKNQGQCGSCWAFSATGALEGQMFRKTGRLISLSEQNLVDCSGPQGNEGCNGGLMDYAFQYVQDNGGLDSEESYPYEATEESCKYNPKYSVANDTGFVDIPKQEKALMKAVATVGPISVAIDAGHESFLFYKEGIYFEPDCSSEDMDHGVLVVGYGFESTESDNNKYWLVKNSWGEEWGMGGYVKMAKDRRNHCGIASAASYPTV

| SMILES | IC50 (FVIIa; FVIIa) | IC50 (Thrombin a) | IC50 (Cathepsin L) | IC50 (MMP 10) | IC50 (Kallikrein 12) | IC50 (Mpro) | IC50 (Matriptase 2) | IC50 (Kallikrein 7) | IC50 (MMP 2) | IC50 (Kallikrein 14) | IC50 (FVIIa; Factor VIIa) |
| --- | --- | --- | --- | --- | --- | --- | --- | --- | --- | --- | --- |
| N=C(N)c1cccc(CC(NS(=O)(=O)c2ccccc2)c2nc3ccccc3s2)c1 (racemic) [1 (racemic mixture, batch 1), 3-[2-Benzenesulfonamido-2-(1,3-benzothiazol-2-yl)ethyl]benzene-1-carboximidamide] | > 10 µM | > 10 µM | > 10 µM | > 10 µM | > 10 µM | > 10 µM | > 10 µM | > 10 µM | > 10 µM | > 10 µM | – |
| N=C(N)c1cccc(CC(NS(=O)(=O)c2cccc(-c3ccc(Cl)cc3Cl)c2)c2nc3ccccc3s2)c1 (racemic) [3 (racemic), 3-[2-(1,3-Benzothiazol-2-yl)-2-{2′,4′-dichloro-[1,1′-biphenyl]-3-sulfonamido}ethyl]benzene-1-carboximidamide] | > 10 µM | < 10 µM | > 10 µM | > 10 µM | > 10 µM | > 10 µM | > 10 µM | > 10 µM | < 10 µM | > 10 µM | – |
| N=C(N)c1cccc(C[C@H](NS(=O)(=O)c2ccccc2)c2nnco2)c1 (single isomer, unassigned) [Compound 2 (enantiomer 1, batch 1), 3-[2-Benzenesulfonamido-2-(1,3,4-oxadiazol-2-yl)ethyl]benzene-1-carboximidamide] | > 10 µM | > 10 µM | > 10 µM | > 10 µM | > 10 µM | > 10 µM | > 10 µM | > 10 µM | > 10 µM | > 10 µM | – |
| COc1ccc2nc(C(Cc3cccc(C(=N)N)c3)NS(=O)(=O)c3ccccc3)sc2c1 (stereo not shown) [Compound 11, 3-[2-Benzenesulfonamido-2-(6-methoxy-1,3-benzothiazol-2-yl)ethyl]benzene-1-carboximidamide] | – | > 10 µM | > 10 µM | > 10 µM | > 10 µM | > 10 µM | < 10 µM | > 10 µM | > 10 µM | > 10 µM | > 10 µM |
